Entries after “also recorded” stand apart in the source; their conditions may differ. Where two headings read alike, the source gives them in different places.
Tests used:
EOL-1 = test: Proliferation of MLL-PTD cell line EOL-1; format: cell-based, human; conditions: 10 μM, 10-day period
REH = test: Cell proliferation, REH; format: cell-based; conditions: Homo sapiens; non-MLL-translocated line REH; FIG. 2
H3K79me2 [1] = conditions: 0.048, 0.195, 0.781, 3.12, and 12.5 μm; FIG. 1A; cited from earlier work
[2] = system: NUP98-NSD1 transformed cells; test: Annexin V apoptosis in NUP98-NSD1 transformed cells; format: cell-based, mouse; conditions: 10 μM, 10 days; compared with MLL-AF9 transformed cells; FIG. 8B
Method: The percentage of Annexin V positive cells is shown.
(§1) Apoptosis was assessed by staining cells with Annexin V 10 days after treatment. The extent of apoptosis was compared to that found in MLL-AF9 transformed cells treated in a similar fashion.

MV4-11 = test: Cell proliferation, MV4-11; format: cell-based; conditions: Homo sapiens; MLL-translocated line MV4-11; FIG. 2
Jurkat [3] = test: Cell proliferation, Jurkat; format: cell-based; conditions: Homo sapiens; non-MLL-translocated line Jurkat; FIG. 2
697 = test: Cell proliferation, 697; format: cell-based; conditions: Homo sapiens; non-MLL-translocated line 697; FIG. 2
Kasumi-1 = test: Cell proliferation, Kasumi-1 (AML1-ETO)
OCI-AML3 = test: Proliferation of OCI-AML3 (NPM1 mutant) cells; format: cell-based, human
Method: as §1
Cell numbers were assessed at multiple time points after treatment was initiated. […] Evidence of differentiation was assessed after DOT1L inhibition via characterization of cell surface marker expression—such as CD11b and CD15 expression, both of which are induced upon differentiation of myelomonocytic leukemia cells.
MTT assays were performed on day 11.

H3K79me2 [4] = conditions: 0.048, 0.195, 0.781, 3.12, and 12.5 μm; FIG. 1A; cited from earlier work; remark: listed apart in the source
[5] = system: MLL germline leukemia cell lines; test: Proliferation of MLL germline leukemia cell lines; conditions: 10 μM; cell lines that do not show elevated HOXA gene expression; FIG. 2
Jurkat [6] = conditions: Daigle, 2011; cited from earlier work
[7] = system: MLL-translocated cell lines; test: Proliferation of MLL-translocated cell lines; conditions: versus MLL-germline lines; FIG. 2
[8] = system: MLL-AF9 transformed cells; test: Cell cycle arrest and apoptosis of MLL-AF9 transformed cells; format: cell-based, murine

CC(C)N(CCCNC(=O)Nc1ccc(C(C)(C)C)cc1)C[C@H]1O[C@@H](n2ccc3c(N)ncnc32)[C@H](O)[C@@H]1O [EPZ004777, 1-(3-((((2R,3S,4R,5R)-5-(4-Amino-7H-pyrrolo[2,3-d]pyrimidin-7-yl)-3,4-dihydroxytetrahydrofuran-2-yl)methyl)(isopropyl)amino)propyl)-3-(4-(tert-butyl)phenyl)urea]
proliferation (EOL-1): significantly inhibited
IC50 (REH): 14 µM
H3K79me2 histone methylation (H3K79me2 [1]): inhibited
apoptosis (Annexin V staining) [2]: more apoptosis; also recorded: induces apoptosis
IC50 (MV4-11): 0.17 µM
IC50 (Jurkat [3]): > 50 µM
IC50 697: 35 µM
proliferation (cell counts) (Kasumi-1; 10 μM, AML1-ETO (Kasumi) cells, FIG. 3B, 7D): not sensitive; also recorded: insensitive
IC50 (Kasumi-1; Homo sapiens, Kasumi 1, read-out: IC50 for cell proliferation): 33 µM
proliferation / cell number versus DMSO (OCI-AML3; 10 μM, compared with MLL-translocated line (Molm-13), FIG. 7C, 10): as sensitive; also recorded: equally, if not more sensitive; also recorded: dramatically inhibited
IC50 (OCI-AML3; Homo sapiens, OCI-AML-3, 264 h, MTT assays on day 11, concentrations up to 10 μM): 0.15 µM
H3K79me2 histone methylation (H3K79me2 [4]): inhibited
influence on proliferation [5]: does not influence
growth of MLL-germline Jurkat cells (Jurkat [6]): unaffected
inhibition of proliferation of MLL-translocated cell lines [7]: selectively inhibits
response to DOT1L inhibition [8]: cell cycle arrest and apoptosis

From US11603570B2, “Methods for the detection and treatment of leukemias that are responsive to DOT1L inhibition” (MEMORIAL SLOAN KETTERING CANCER CENTER, priority 2013, dated 2023)
